Measured values reported in the supplement of paper PMC10307832.

What was measured:
Experiment in all cases: relative viability (nuclei count vs DMSO), 5 days (fraction); higher = more cells survive
CAL-12T = system: CAL-12T
Procedure, shortened: (§1)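 For relative viability, nuclei counts in treated wells were divided by those in vehicle wells. Lung cancer cell lines had been pin-tool dosed in 1536-well plates the day after seeding and cultured for 5 days, then fixed and stained in one step (final 0.05% Triton X-100, 1% formaldehyde, 1 ug/ml Hoechst) and imaged at 4×. Doses were one drug alone or a fixed anchor-drug dose plus five library-drug doses (not always all listed) in √10 steps, and values are duplicate-plate medians.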

EKVX = system: EKVX
Procedure, shortened: as §1

H3255 = system: H3255
Procedure, shortened: as §1

HCC-15 = system: HCC-15
Procedure, shortened: as §1

HCC-827 = system: HCC-827
Procedure, shortened: as §1

LCLC-97TM1 = system: LCLC-97TM1
Procedure, shortened: as §1

LK-2 = system: LK-2
Procedure, shortened: as §1

NCI-H1355 = system: NCI-H1355
Procedure, shortened: as §1

NCI-H1563 = system: NCI-H1563
Procedure, shortened: as §1

NCI-H1650 = system: NCI-H1650
Procedure, shortened: as §1

NCI-H1734 = system: NCI-H1734
Procedure, shortened: as §1

NCI-H1755 = system: NCI-H1755
Procedure, shortened: as §1

NCI-H1975 = system: NCI-H1975
Procedure, shortened: as §1

NCI-H2228 = system: NCI-H2228
Procedure, shortened: as §1

NCI-H2342 = system: NCI-H2342
Procedure, shortened: as §1

NCI-H2405 = system: NCI-H2405
Procedure, shortened: as §1

NCI-H322M = system: NCI-H322M
Procedure, shortened: as §1

NCI-H520 = system: NCI-H520
Procedure, shortened: as §1

NCI-H661 = system: NCI-H661
Procedure, shortened: as §1

PC-14 = system: PC-14
Procedure, shortened: as §1

PC-3 [JPC-3] = system: PC-3 [JPC-3]
Procedure, shortened: as §1

RERF-LC-KJ = system: RERF-LC-KJ
Procedure, shortened: as §1

O=c1cc(-c2cccc3c2Sc2ccccc2S3)oc(N2CCOCC2)c1 + COc1cc2c(Oc3ccc(NC(=O)C4(C(=O)Nc5ccc(F)cc5)CC4)cc3F)ccnc2cc1OCCCN1CCOCC1 [Foretinib] (partner 0.25 µM)
relative viability (CAL-12T; first compound 0.08 µM): 0.951 | relative viability (CAL-12T; first compound 0.253 µM): 1.15 | relative viability (CAL-12T; first compound 0.8 µM): 1.19 | relative viability (CAL-12T; first compound 2.53 µM): 1.14 | relative viability (CAL-12T; first compound 8 µM): 1 | relative viability (EKVX; first compound 0.08 µM): 0.785 | relative viability (EKVX; first compound 0.253 µM): 0.892 | relative viability (EKVX; first compound 0.8 µM): 0.751 | relative viability (EKVX; first compound 2.53 µM): 0.734 | relative viability (EKVX; first compound 8 µM): 1.33 | relative viability (H3255; first compound 0.08 µM): 0.758 | relative viability (H3255; first compound 0.253 µM): 0.821 | relative viability (H3255; first compound 0.8 µM): 0.87 | relative viability (H3255; first compound 2.53 µM): 0.738 | relative viability (H3255; first compound 8 µM): 0.925 | relative viability (HCC-15; first compound 0.08 µM): 1.01 | relative viability (HCC-15; first compound 0.253 µM): 1.14 | relative viability (HCC-15; first compound 0.8 µM): 1 | relative viability (HCC-15; first compound 2.53 µM): 1.08 | relative viability (HCC-15; first compound 8 µM): 1.11 | relative viability (HCC-827; first compound 0.08 µM): 0.94 | relative viability (HCC-827; first compound 0.253 µM): 1.12 | relative viability (HCC-827; first compound 0.8 µM): 1.07 | relative viability (HCC-827; first compound 2.53 µM): 0.863 | relative viability (HCC-827; first compound 8 µM): 1.02 | relative viability (LCLC-97TM1; first compound 0.08 µM): 0.961 | relative viability (LCLC-97TM1; first compound 0.253 µM): 1.02 | relative viability (LCLC-97TM1; first compound 0.8 µM): 0.977 | relative viability (LCLC-97TM1; first compound 2.53 µM): 0.887 | relative viability (LCLC-97TM1; first compound 8 µM): 0.909 | relative viability (LK-2; first compound 0.08 µM): 0.933 | relative viability (LK-2; first compound 0.253 µM): 1.24 | relative viability (LK-2; first compound 0.8 µM): 1.23 | relative viability (LK-2; first compound 2.53 µM): 0.997 | relative viability (LK-2; first compound 8 µM): 1.25 | relative viability (NCI-H1355; first compound 0.08 µM): 0.999 | relative viability (NCI-H1355; first compound 0.253 µM): 1.12 | relative viability (NCI-H1355; first compound 0.8 µM): 0.861 | relative viability (NCI-H1355; first compound 2.53 µM): 0.977 | relative viability (NCI-H1355; first compound 8 µM): 0.926 | relative viability (NCI-H1563; first compound 0.08 µM): 0.922 | relative viability (NCI-H1563; first compound 0.253 µM): 0.895 | relative viability (NCI-H1563; first compound 0.8 µM): 0.868 | relative viability (NCI-H1563; first compound 2.53 µM): 0.89 | relative viability (NCI-H1563; first compound 8 µM): 0.91 | relative viability (NCI-H1650; first compound 0.08 µM): 1.35 | relative viability (NCI-H1650; first compound 0.253 µM): 1.04 | relative viability (NCI-H1650; first compound 0.8 µM): 0.998 | relative viability (NCI-H1650; first compound 2.53 µM): 0.902 | relative viability (NCI-H1650; first compound 8 µM): 1.19 | relative viability (NCI-H1734; first compound 0.08 µM): 0.788 | relative viability (NCI-H1734; first compound 0.253 µM): 1.04 | relative viability (NCI-H1734; first compound 0.8 µM): 0.99 | relative viability (NCI-H1734; first compound 8 µM): 0.94 | relative viability (NCI-H1755; first compound 0.08 µM): 0.861 | relative viability (NCI-H1755; first compound 0.253 µM): 0.976 | relative viability (NCI-H1755; first compound 0.8 µM): 0.913 | relative viability (NCI-H1755; first compound 2.53 µM): 0.899 | relative viability (NCI-H1755; first compound 8 µM): 0.943 | relative viability (NCI-H1975; first compound 0.08 µM): 0.966 | relative viability (NCI-H1975; first compound 0.253 µM): 0.924 | relative viability (NCI-H1975; first compound 0.8 µM): 0.931 | relative viability (NCI-H1975; first compound 2.53 µM): 0.946 | relative viability (NCI-H1975; first compound 8 µM): 1.02 | relative viability (NCI-H2228; first compound 0.08 µM): 0.753 | relative viability (NCI-H2228; first compound 0.253 µM): 0.907 | relative viability (NCI-H2228; first compound 0.8 µM): 0.966 | relative viability (NCI-H2228; first compound 2.53 µM): 0.813 | relative viability (NCI-H2228; first compound 8 µM): 1.11 | relative viability (NCI-H2342; first compound 0.08 µM): 0.996 | relative viability (NCI-H2342; first compound 0.253 µM): 1.04 | relative viability (NCI-H2342; first compound 0.8 µM): 0.916 | relative viability (NCI-H2342; first compound 2.53 µM): 0.917 | relative viability (NCI-H2342; first compound 8 µM): 1.11 | relative viability (NCI-H2405; first compound 0.08 µM): 0.998 | relative viability (NCI-H2405; first compound 0.253 µM): 1.09 | relative viability (NCI-H2405; first compound 0.8 µM): 0.975 | relative viability (NCI-H2405; first compound 2.53 µM): 0.938 | relative viability (NCI-H2405; first compound 8 µM): 1.04 | relative viability (NCI-H322M; first compound 0.08 µM): 0.896 | relative viability (NCI-H322M; first compound 0.253 µM): 1 | relative viability (NCI-H322M; first compound 0.8 µM): 0.885 | relative viability (NCI-H322M; first compound 2.53 µM): 0.858 | relative viability (NCI-H322M; first compound 8 µM): 0.972 | relative viability (NCI-H520; first compound 0.08 µM): 0.786 | relative viability (NCI-H520; first compound 0.253 µM): 0.885 | relative viability (NCI-H520; first compound 0.8 µM): 0.835 | relative viability (NCI-H520; first compound 2.53 µM): 0.779 | relative viability (NCI-H520; first compound 8 µM): 0.985 | relative viability (NCI-H661; first compound 0.08 µM): 1.02 | relative viability (NCI-H661; first compound 0.253 µM): 1.02 | relative viability (NCI-H661; first compound 0.8 µM): 0.92 | relative viability (NCI-H661; first compound 2.53 µM): 0.952 | relative viability (NCI-H661; first compound 8 µM): 1 | relative viability (PC-14; first compound 0.08 µM): 0.95 | relative viability (PC-14; first compound 0.253 µM): 1.29 | relative viability (PC-14; first compound 0.8 µM): 0.924 | relative viability (PC-14; first compound 2.53 µM): 0.961 | relative viability (PC-14; first compound 8 µM): 0.966 | relative viability (PC-3 [JPC-3]; first compound 0.08 µM): 1.06 | relative viability (PC-3 [JPC-3]; first compound 0.253 µM): 1.08 | relative viability (PC-3 [JPC-3]; first compound 0.8 µM): 1.16 | relative viability (PC-3 [JPC-3]; first compound 2.53 µM): 1.01 | relative viability (PC-3 [JPC-3]; first compound 8 µM): 1.2 | relative viability (RERF-LC-KJ; first compound 0.08 µM): 0.836 | relative viability (RERF-LC-KJ; first compound 0.253 µM): 0.952 | relative viability (RERF-LC-KJ; first compound 0.8 µM): 0.745 | relative viability (RERF-LC-KJ; first compound 2.53 µM): 0.995 | relative viability (RERF-LC-KJ; first compound 8 µM): 0.792
